Series [1] can be described thus: Inherent dissolution rate of tabletted dried crystals in ion exchanged water (Test Example 1). The conditions noted are these: for amount of crystals dissolved: 300 mg tablet, 300 ml ion exchanged water, 20° C., 200 rpm. It counts as physicochemical. As for the experimental part:
Measurement of the Dissolution Rate for the Dried Crystals The dissolution rates of the A-type crystals (Reference Example 2(b)) and the C-type crystals (Example 1) were determined in the following method. That is, 300 mg each of the crystals were introduced into a tabletting mortar (tablet machine) with an internal diameter of 8 mm and a depth of 12 mm, and tabletted at 300 kg/cm2G with “High Pressure Jack J-1 type” (manufactured by Iuchi Seieido) to prepare a sample for measurement of dissolution rate. For measurement of the dissolution rate, the tabletting mortar with only the tabletting face exposed was introduced into 300 ml ion exchanged water kept at 20° C. at a stirring in the number of revolution of 200 rpm, and the inherent dissolution rate was determined using “DISSOLUTION TESTER” (NTR-6100) (manufactured by Toyama Sangyo K. K.).

The nature of series [2]: Dissolution time, Japanese Pharmacopoeia Paddle method (Test Example 2). Type of series: physicochemical. The conditions noted are these: 0.5 g sample in 900 ml water (20° C.), 100 rpm, end point visually confirmed. As for the experimental part:
Measurement of the Dissolution Rates of the C-type Crystals (Original Powder) and Granules Thereof 0.5 g of the sample was introduced into 900 ml water (20° C.) in a 1-L elution tester (the Japanese Pharmacopoeia, Paddle method, 100 rpm) and its dissolution time was measured (end point was visually confirmed). That is, the C-type crystals (original powder with an average particle size of about 50 μm) obtained in Example 1 above and the granules (particle size of 100 to 500 μm and 500 to 1,400 μm) of C-type crystals obtained in Example 2 above were examined for measurements of their dissolution times in the same manner as described above.

The conditions of series [3]: weight ratio, cited from earlier work.

Consider `COC(=O)[C@H](Cc1ccccc1)NC(=O)[C@H](CC(=O)O)NCCC(C)(C)C` [C-type crystals, N-[N-(3,3-dimethylbutyl)-L-α-aspartyl]-L-phenylalanine methyl ester], for which the figures for the “amount of crystals dissolved” value in series [1] (30 minutes), in series [1] (60 minutes) and in series [1] (120 minutes) were 25 mg, 42 mg and 86 mg, respectively. Moreover, the “dissolution rate as compared with the A-type crystals” value in series [1] (comparison with A-type crystals) is listed as “significantly improved dissolution rate”. In series [2], this compound had a dissolution time of 55 min.

Turning to `COC(=O)[C@H](Cc1ccccc1)NC(=O)[C@H](CC(=O)O)NCCC(C)(C)C` [N-(3,3-dimethylbutyl)-APM, N-[N-(3,3-dimethylbutyl)-L-α-aspartyl]-L-phenylalanine methyl ester], the “efficacy of sweetness relative to Aspartame” value in series [3] (versus Aspartame) is “at least 50 times”. For the same compound, the “efficacy of sweetness relative to sucrose” value in series [3] (versus sucrose (table sugar)) was “about 10,000 times”.

On to `COC(=O)[C@H](Cc1ccccc1)NC(=O)[C@H](CC(=O)O)NCCC(C)(C)C` [A-type crystals, N-[N-(3,3-dimethylbutyl)-L-α-aspartyl]-L-phenylalanine methyl ester, reference compound], for which the “amount of crystals dissolved” value in series [1] (30 minutes) was determined as 17 mg; in series [1] (60 minutes), 34 mg; in series [1] (120 minutes), 69 mg.

The record behind these values is patent US6790470B1, “Aspartame derivative crystal and process for producing the same” (Ajinomoto Co., Inc., priority 1998, dated 2004).
